# Where “and” joins values, the source holds several entries; their conditions need not be identical. Equal values may be shown once. Inconclusive results and toxic doses are left out.
# Test system: BDF1 mice, P388 leukemia ip, median survival T/C
# Experiment: NCI In Vivo Anticancer Drug Screen. Data for tumor model P388 Leukemia (intraperitoneal) in B6D2F1 (BDF1) mice
# Conditions: endpoint: median survival time, higher = longer survival
# Method in brief: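 T/C = treated-group survival ÷ vehicle-control survival; tumour transplanted into mice before dosing.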
structure (smiles),measurement,setting,value
COC1C(O)CC(OC2CC(Oc3cc4cc5c(c(O)c4c(O)c3C)C(=O)[C@@H](OC3CC(OC4CC(OC6CC(C)(O)C(OC(C)=O)C(C)O6)C(O)C(C)O4)C(O)C(C)O3)[C@H]([C@H](OC)C(=O)[C@@H](O)[C@@H](C)O)C5)OC(C)C2OC(C)=O)OC1C (stereo not given in full),T/C,"dose: 0.02 mg/kg/injection, schedule: Q01DX005 (ip), vehicle: saline",166 % of control
same,T/C,"dose: 0.03 mg/kg/injection, schedule: Q01DX001 (ip), vehicle: saline",109 % of control
same,T/C,"dose: 0.03 mg/kg/injection, schedule: Q01DX005 (ip), vehicle: saline",168 % of control
same,T/C,"dose: 0.03 mg/kg/injection, schedule: Q01DX009 (ip), vehicle: saline",150 % of control
same,T/C,"dose: 0.05 mg/kg/injection, schedule: Q01DX005 (ip), vehicle: clinical formulation",183 % of control
same,T/C,"dose: 0.05 mg/kg/injection, schedule: Q01DX005 (ip), vehicle: saline",166 % of control and 183 % of control and 187 % of control
same,T/C,"dose: 0.06 mg/kg/injection, schedule: Q01DX005 (ip), vehicle: saline",172 % of control
same,T/C,"dose: 0.06 mg/kg/injection, schedule: Q01DX009 (ip), vehicle: saline",172 % of control
same,T/C,"dose: 0.1 mg/kg/injection, schedule: Q01DX005 (ip), vehicle: clinical formulation",200 % of control
same,T/C,"dose: 0.1 mg/kg/injection, schedule: Q01DX005 (ip), vehicle: saline",187 % of control (2×) and 193 % of control
same,T/C,"dose: 0.13 mg/kg/injection, schedule: Q01DX001 (oral), vehicle: saline",100 % of control
same,T/C,"dose: 0.13 mg/kg/injection, schedule: Q01DX001 (sc), vehicle: Klucel (hydroxypropylcellulose) (HPC)",100 % of control
same,T/C,"dose: 0.13 mg/kg/injection, schedule: Q01DX005 (ip), vehicle: saline",177 % of control
same,T/C,"dose: 0.13 mg/kg/injection, schedule: Q01DX009 (ip), vehicle: saline",172 % of control
same,T/C,"dose: 0.13 mg/kg/injection, schedule: Q01DX010 (oral), vehicle: saline",100 % of control
same,T/C,"dose: 0.13 mg/kg/injection, schedule: Q01DX010 (sc), vehicle: Klucel (hydroxypropylcellulose) (HPC)",109 % of control
same,T/C,"dose: 0.15 mg/kg/injection, schedule: Q01DX005 (ip), vehicle: clinical formulation",225 % of control
same,T/C,"dose: 0.15 mg/kg/injection, schedule: Q01DX005 (ip), vehicle: saline",204 % of control
same,T/C,"dose: 0.2 mg/kg/injection, schedule: Q01DX005 (ip), vehicle: clinical formulation",170 % of control
same,T/C,"dose: 0.2 mg/kg/injection, schedule: Q01DX005 (ip), vehicle: saline",254 % of control and 260 % of control and 158 % of control
same,T/C,"dose: 0.25 mg/kg/injection, schedule: Q01DX001 (sc), vehicle: Klucel (hydroxypropylcellulose) (HPC)",100 % of control
same,T/C,"dose: 0.25 mg/kg/injection, schedule: Q01DX009 (ip), vehicle: saline",95 % of control
same,T/C,"dose: 0.25 mg/kg/injection, schedule: Q01DX010 (sc), vehicle: Klucel (hydroxypropylcellulose) (HPC)",95 % of control
same,T/C,"dose: 0.25 mg/kg/injection, schedule: Q04DX003 (ip), vehicle: saline",200 % of control
same,T/C,"dose: 0.4 mg/kg/injection, schedule: Q01DX001 (ip), vehicle: saline",150 % of control
same,T/C,"dose: 0.5 mg/kg/injection, schedule: Q01DX001 (ip), vehicle: other",175 % of control
same,T/C,"dose: 0.5 mg/kg/injection, schedule: Q01DX001 (oral), vehicle: saline",95 % of control
same,T/C,"dose: 0.5 mg/kg/injection, schedule: Q01DX001 (sc), vehicle: Klucel (hydroxypropylcellulose) (HPC)",109 % of control
same,T/C,"dose: 0.5 mg/kg/injection, schedule: Q01DX010 (oral), vehicle: saline",109 % of control
same,T/C,"dose: 0.5 mg/kg/injection, schedule: Q04DX003 (ip), vehicle: saline",100 % of control
same,T/C,"dose: 0.8 mg/kg/injection, schedule: Q01DX001 (ip), vehicle: saline",170 % of control
same,T/C,"dose: 1.0 mg/kg/injection, schedule: Q01DX010 (oral), vehicle: saline",100 % of control
same,T/C,"dose: 1.6 mg/kg/injection, schedule: Q01DX001 (ip), vehicle: saline",162 % of control
same,T/C,"dose: 2.0 mg/kg/injection, schedule: Q01DX001 (oral), vehicle: saline",109 % of control
same,T/C,"dose: 2.0 mg/kg/injection, schedule: Q01DX010 (oral), vehicle: saline",100 % of control
same,T/C,"dose: 0.9 micrograms/kg/injection, schedule: Q01DX010 (ip), vehicle: saline",90 % of control
same,T/C,"dose: 1.9 micrograms/kg/injection, schedule: Q01DX010 (ip), vehicle: saline",86 % of control
same,T/C,"dose: 3.8 micrograms/kg/injection, schedule: Q01DX010 (ip), vehicle: saline",100 % of control
same,T/C,"dose: 3.8 micrograms/kg/injection, schedule: Q03HX024 (ip), vehicle: saline",177 % of control
same,T/C,"dose: 8.0 micrograms/kg/injection, schedule: Q01DX010 (ip), vehicle: saline",150 % of control
same,T/C,"dose: 16.0 micrograms/kg/injection, schedule: Q01DX010 (ip), vehicle: saline",160 % of control
same,T/C,"dose: 32.0 micrograms/kg/injection, schedule: Q01DX010 (ip), vehicle: saline",180 % of control and 195 % of control
same,T/C,"dose: 60.0 micrograms/kg/injection, schedule: Q01DX010 (ip), vehicle: saline",154 % of control
same,T/C,"dose: 62.0 micrograms/kg/injection, schedule: Q01DX009 (ip), vehicle: other",150 % of control
same,T/C,"dose: 63.0 micrograms/kg/injection, schedule: Q01DX010 (ip), vehicle: saline",163 % of control and 185 % of control and 210 % of control
same,T/C,"dose: 125.0 micrograms/kg/injection, schedule: Q01DX001 (ip), vehicle: clinical formulation",154 % of control and 168 % of control and 181 % of control
same,T/C,"dose: 125.0 micrograms/kg/injection, schedule: Q01DX001 (ip), vehicle: water",213 % of control
same,T/C,"dose: 125.0 micrograms/kg/injection, schedule: Q01DX009 (ip), vehicle: other",166 % of control
same,T/C,"dose: 125.0 micrograms/kg/injection, schedule: Q01DX010 (ip), vehicle: saline",300 % of control and 209 % of control
same,T/C,"dose: 200.0 micrograms/kg/injection, schedule: Q01DX009 (ip), vehicle: saline",100 % of control
same,T/C,"dose: 250.0 micrograms/kg/injection, schedule: Q01DX001 (ip), vehicle: clinical formulation",186 % of control and 195 % of control and 200 % of control
same,T/C,"dose: 250.0 micrograms/kg/injection, schedule: Q01DX001 (ip), vehicle: water",250 % of control
same,T/C,"dose: 500.0 micrograms/kg/injection, schedule: Q01DX001 (ip), vehicle: clinical formulation",236 % of control and 190 % of control and 213 % of control
same,T/C,"dose: 1000.0 micrograms/kg/injection, schedule: Q01DX001 (ip), vehicle: clinical formulation",231 % of control
same,T/C,"dose: 2000.0 micrograms/kg/injection, schedule: Q01DX001 (ip), vehicle: clinical formulation",100 % of control
